Measured values from ChEMBL document CHEMBL5252509, “In depth analysis of kinase cross screening data to identify chemical starting points for inhibition of the Nek family of kinases” (Medchemcomm, 2018).

Experiments:
[1] = target: Serine/threonine-protein kinase Nek4 (Homo sapiens) (UniProt P51957); experiment: Inhibition of NEK4 (unknown origin) at 100 nM relative to control
[2] = target: Mitogen-activated protein kinase kinase kinase 8 (Homo sapiens, UniProt P41279); experiment: Inhibition of MAP3K8 (unknown origin)
[3] = target: T1, Serine/threonine-protein kinase Nek3 (Homo sapiens) (UniProt P51956); experiment: Inhibition of NEK3 (unknown origin) at 10 uM relative to control
T1 sequence (whole entry): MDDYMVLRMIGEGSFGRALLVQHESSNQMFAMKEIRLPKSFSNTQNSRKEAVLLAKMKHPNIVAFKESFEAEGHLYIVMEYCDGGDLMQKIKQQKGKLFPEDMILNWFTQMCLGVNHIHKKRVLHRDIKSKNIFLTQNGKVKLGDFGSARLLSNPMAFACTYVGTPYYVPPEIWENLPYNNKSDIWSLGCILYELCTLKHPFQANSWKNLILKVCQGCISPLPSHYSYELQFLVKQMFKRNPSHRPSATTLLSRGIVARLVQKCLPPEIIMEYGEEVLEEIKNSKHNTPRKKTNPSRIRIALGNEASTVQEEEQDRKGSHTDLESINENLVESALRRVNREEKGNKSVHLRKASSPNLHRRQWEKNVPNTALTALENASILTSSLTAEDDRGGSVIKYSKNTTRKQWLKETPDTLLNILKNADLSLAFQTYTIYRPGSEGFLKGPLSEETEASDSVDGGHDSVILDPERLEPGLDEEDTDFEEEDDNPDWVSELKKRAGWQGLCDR

[4] = target: T2, Serine/threonine-protein kinase Nek9 (Homo sapiens) (UniProt Q8TD19); experiment: Inhibition of NEK9 (unknown origin) at 10 uM relative to control
T2 sequence (whole entry): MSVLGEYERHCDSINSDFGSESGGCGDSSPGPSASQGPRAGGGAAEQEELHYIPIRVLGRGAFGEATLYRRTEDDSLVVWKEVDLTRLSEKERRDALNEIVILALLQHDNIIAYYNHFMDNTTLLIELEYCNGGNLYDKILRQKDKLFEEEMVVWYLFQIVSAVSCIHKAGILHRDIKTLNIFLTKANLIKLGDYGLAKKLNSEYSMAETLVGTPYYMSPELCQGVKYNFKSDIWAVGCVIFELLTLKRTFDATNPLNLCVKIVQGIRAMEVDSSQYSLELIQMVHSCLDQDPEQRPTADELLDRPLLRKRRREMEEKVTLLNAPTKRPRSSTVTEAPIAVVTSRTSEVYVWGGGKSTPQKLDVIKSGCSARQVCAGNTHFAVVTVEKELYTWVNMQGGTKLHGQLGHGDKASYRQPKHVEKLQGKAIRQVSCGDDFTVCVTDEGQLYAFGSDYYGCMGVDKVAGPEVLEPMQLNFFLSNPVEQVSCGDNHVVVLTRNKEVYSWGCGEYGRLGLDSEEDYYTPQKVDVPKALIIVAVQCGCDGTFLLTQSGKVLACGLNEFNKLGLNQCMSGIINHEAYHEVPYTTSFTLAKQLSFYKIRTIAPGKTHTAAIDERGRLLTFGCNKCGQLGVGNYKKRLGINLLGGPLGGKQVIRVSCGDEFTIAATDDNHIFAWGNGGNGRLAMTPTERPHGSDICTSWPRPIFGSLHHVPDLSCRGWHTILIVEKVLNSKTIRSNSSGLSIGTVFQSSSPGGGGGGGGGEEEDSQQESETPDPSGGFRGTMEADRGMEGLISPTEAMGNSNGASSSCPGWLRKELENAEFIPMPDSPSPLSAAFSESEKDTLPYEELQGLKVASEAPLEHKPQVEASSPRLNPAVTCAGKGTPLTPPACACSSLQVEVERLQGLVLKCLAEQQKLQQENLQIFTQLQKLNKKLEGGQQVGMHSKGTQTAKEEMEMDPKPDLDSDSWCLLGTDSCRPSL

[5] = target: Serine/threonine-protein kinase Nek6 (Homo sapiens) (UniProt Q9HC98); experiment: Inhibition of NEK6 (unknown origin) at 10 uM relative to control
[6] = target: T3, Serine/threonine-protein kinase Nek5 (Homo sapiens) (UniProt Q6P3R8); experiment: Inhibition of NEK5 (unknown origin) at 10 uM relative to control
T3 sequence (whole entry): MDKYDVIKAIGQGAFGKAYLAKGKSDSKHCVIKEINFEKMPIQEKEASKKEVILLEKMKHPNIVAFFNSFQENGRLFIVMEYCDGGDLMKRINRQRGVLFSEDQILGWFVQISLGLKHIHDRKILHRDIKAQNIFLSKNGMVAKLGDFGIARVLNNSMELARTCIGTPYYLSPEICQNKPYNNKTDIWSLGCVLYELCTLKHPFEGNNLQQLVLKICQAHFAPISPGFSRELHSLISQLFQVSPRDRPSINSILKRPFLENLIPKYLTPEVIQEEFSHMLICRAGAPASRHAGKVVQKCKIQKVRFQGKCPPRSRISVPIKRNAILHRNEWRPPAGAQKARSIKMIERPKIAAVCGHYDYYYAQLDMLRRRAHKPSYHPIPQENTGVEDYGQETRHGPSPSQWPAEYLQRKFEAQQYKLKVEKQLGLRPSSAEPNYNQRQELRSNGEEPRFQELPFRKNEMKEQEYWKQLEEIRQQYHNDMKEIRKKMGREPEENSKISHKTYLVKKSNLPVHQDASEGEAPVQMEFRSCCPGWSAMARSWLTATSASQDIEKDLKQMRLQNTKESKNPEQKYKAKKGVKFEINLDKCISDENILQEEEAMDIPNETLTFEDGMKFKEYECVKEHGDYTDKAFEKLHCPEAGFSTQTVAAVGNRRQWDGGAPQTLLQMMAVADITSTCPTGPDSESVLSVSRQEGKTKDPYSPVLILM

[7] = target: T4, Serine/threonine-protein kinase Nek2 (Homo sapiens) (UniProt P51955); experiment: Inhibition of NEK2 (unknown origin) at 10 uM relative to control
T4 sequence (whole entry): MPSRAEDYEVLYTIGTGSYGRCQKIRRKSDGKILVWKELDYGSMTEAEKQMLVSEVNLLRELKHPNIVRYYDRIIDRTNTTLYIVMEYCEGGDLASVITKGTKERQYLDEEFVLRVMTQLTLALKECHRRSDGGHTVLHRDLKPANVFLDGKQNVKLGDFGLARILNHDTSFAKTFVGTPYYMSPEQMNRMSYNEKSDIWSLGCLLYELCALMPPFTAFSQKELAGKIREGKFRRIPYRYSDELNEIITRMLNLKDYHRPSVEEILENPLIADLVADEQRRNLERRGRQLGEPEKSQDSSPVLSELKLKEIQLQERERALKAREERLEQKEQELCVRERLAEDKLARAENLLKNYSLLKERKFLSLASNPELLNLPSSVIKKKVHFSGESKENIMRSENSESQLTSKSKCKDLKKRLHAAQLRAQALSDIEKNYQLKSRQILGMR

[8] = target: Serine/threonine-protein kinase Nek2 (Homo sapiens, UniProt P51955); experiment: Inhibition of NEK2 (unknown origin) assessed as dissociation constant
[9] = target: Serine/threonine-protein kinase Nek7 (Homo sapiens) (UniProt Q8TDX7); experiment: Inhibition of NEK7 (unknown origin) at 10 uM relative to control
[10] = target: Serine/threonine-protein kinase Nek4 (Homo sapiens) (UniProt P51957); experiment: Inhibition of NEK4 (unknown origin) at 10 uM relative to control
[11] = target: Serine/threonine-protein kinase Nek7 (Homo sapiens) (UniProt Q8TDX7); experiment: Inhibition of NEK7 (unknown origin) at 1 uM relative to control
[12] = target: T4, Serine/threonine-protein kinase Nek2 (Homo sapiens); experiment: Inhibition of NEK2 (unknown origin) at 100 nM relative to control
[13] = target: T4, Serine/threonine-protein kinase Nek2 (Homo sapiens); experiment: Inhibition of NEK2 (unknown origin) at 1 uM relative to control
[14] = target: T2, Serine/threonine-protein kinase Nek9 (Homo sapiens); experiment: Inhibition of NEK9 (unknown origin) at 100 nM relative to control
[15] = target: T2, Serine/threonine-protein kinase Nek9 (Homo sapiens); experiment: Inhibition of NEK9 (unknown origin) at 1 uM relative to control
[16] = target: T5, Serine/threonine-protein kinase Nek1 (Homo sapiens) (UniProt Q96PY6); experiment: Inhibition of NEK1 (unknown origin) at 100 nM relative to control
T5 sequence (whole entry): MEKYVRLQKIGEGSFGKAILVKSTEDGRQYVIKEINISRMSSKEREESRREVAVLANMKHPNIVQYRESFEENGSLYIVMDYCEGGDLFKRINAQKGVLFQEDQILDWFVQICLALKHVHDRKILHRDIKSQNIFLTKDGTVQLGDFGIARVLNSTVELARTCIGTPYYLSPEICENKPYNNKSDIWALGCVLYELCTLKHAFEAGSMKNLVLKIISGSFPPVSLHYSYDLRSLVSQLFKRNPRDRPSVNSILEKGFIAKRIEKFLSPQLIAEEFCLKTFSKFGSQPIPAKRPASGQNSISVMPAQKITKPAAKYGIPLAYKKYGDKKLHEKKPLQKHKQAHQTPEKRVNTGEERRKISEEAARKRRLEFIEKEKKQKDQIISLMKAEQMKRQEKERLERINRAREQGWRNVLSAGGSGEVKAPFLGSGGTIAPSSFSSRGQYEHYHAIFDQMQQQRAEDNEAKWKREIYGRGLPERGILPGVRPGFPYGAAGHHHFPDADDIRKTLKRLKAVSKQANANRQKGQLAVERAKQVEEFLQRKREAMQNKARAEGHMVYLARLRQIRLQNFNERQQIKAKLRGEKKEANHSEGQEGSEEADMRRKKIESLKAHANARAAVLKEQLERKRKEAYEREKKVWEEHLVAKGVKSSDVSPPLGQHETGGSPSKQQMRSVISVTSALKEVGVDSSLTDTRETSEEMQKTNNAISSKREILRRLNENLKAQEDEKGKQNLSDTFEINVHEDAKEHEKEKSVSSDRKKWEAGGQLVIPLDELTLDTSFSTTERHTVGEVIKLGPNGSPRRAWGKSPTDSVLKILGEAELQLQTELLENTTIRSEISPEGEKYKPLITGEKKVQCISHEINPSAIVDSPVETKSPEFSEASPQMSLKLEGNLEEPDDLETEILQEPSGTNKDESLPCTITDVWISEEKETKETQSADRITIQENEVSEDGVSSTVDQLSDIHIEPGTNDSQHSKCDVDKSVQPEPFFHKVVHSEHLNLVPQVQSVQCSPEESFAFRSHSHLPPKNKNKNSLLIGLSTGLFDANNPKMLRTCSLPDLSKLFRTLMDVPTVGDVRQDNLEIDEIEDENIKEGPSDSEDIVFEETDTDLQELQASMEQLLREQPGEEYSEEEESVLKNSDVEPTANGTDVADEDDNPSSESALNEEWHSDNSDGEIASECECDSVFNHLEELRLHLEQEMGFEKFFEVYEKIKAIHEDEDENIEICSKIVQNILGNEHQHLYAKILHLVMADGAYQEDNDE

[17] = target: Serine/threonine-protein kinase Nek7 (Homo sapiens) (UniProt Q8TDX7); experiment: Inhibition of NEK7 (unknown origin) at 100 nM relative to control
[18] = target: Serine/threonine-protein kinase Nek6 (Homo sapiens) (UniProt Q9HC98); experiment: Inhibition of NEK6 (unknown origin) at 1 uM relative to control
[19] = target: Serine/threonine-protein kinase Nek6 (Homo sapiens) (UniProt Q9HC98); experiment: Inhibition of NEK6 (unknown origin) at 100 nM relative to control
[20] = target: Serine/threonine-protein kinase Nek7 (Homo sapiens) (UniProt Q8TDX7); experiment: Inhibition of NEK7 (unknown origin) at 3 uM relative to control
[21] = target: T6, Serine/threonine-protein kinase Nek9 (Homo sapiens, UniProt Q8TD19); experiment: Inhibition of NEK9 (unknown origin) assessed as dissociation constant
[22] = target: Serine/threonine-protein kinase Nek1 (Homo sapiens, UniProt Q96PY6); experiment: Inhibition of NEK1 (unknown origin) assessed as dissociation constant
[23] = target: T6, Serine/threonine-protein kinase Nek9; experiment: Inhibition of NEK9 (unknown origin)
[24] = target: Serine/threonine-protein kinase Nek3 (Homo sapiens, UniProt P51956); experiment: Inhibition of NEK3 (unknown origin) assessed as dissociation constant

Sequence of Serine/threonine-protein kinase Nek4 (Homo sapiens) (P51957 whole entry, looked up): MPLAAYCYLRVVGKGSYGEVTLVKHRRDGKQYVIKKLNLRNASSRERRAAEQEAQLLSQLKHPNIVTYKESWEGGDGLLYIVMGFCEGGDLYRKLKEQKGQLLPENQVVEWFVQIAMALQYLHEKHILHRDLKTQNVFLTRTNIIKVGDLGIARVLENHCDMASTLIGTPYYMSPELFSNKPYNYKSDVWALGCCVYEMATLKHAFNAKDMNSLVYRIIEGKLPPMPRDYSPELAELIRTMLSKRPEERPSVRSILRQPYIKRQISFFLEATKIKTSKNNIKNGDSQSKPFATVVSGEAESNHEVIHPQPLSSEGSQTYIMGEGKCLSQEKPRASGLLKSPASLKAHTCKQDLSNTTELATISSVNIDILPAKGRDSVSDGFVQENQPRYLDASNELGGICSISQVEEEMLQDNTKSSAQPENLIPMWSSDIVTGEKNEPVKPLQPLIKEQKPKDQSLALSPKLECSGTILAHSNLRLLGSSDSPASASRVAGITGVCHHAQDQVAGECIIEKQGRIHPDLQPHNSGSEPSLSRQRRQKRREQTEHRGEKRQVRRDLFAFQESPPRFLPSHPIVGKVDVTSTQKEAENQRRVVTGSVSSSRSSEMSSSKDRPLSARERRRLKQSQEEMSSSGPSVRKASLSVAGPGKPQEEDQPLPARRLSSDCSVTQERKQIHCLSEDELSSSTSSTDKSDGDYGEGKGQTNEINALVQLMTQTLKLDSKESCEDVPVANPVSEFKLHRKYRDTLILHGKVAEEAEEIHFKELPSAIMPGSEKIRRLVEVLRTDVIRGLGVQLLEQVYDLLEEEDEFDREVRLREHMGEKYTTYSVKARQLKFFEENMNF
Sequence of Serine/threonine-protein kinase Nek7 (Homo sapiens) (Q8TDX7 whole entry, looked up): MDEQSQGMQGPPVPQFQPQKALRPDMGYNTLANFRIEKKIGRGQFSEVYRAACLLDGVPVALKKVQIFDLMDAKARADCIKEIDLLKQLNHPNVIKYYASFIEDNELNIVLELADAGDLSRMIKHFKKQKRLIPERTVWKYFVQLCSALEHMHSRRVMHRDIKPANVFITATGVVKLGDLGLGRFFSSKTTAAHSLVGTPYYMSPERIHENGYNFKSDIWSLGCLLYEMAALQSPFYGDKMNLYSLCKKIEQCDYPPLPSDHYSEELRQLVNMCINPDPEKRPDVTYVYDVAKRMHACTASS
Sequence of Serine/threonine-protein kinase Nek6 (Homo sapiens) (Q9HC98 whole entry): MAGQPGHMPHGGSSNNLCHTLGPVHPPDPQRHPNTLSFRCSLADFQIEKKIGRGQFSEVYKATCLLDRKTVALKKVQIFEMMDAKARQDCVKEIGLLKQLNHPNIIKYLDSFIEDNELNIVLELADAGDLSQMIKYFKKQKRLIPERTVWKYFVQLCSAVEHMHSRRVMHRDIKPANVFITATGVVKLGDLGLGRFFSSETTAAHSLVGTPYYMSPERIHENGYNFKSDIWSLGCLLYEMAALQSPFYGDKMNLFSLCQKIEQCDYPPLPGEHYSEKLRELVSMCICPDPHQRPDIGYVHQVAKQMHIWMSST
Sequence of Mitogen-activated protein kinase kinase kinase 8 (P41279 whole entry): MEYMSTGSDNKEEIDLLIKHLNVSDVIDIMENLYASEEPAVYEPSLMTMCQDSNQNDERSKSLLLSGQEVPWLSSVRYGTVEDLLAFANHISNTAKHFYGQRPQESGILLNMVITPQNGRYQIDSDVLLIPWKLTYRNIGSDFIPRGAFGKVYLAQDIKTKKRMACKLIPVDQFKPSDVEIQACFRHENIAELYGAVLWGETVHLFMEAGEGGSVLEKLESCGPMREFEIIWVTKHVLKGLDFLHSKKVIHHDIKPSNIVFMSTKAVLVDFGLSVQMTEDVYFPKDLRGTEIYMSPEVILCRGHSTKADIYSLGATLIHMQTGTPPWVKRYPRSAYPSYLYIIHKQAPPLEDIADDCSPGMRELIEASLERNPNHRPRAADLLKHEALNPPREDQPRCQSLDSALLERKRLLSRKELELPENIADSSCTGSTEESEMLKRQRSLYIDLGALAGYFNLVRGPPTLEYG

For `Ic1ccc(Oc2cncc3sc(-c4nn[nH]n4)cc23)cc1`, the inhibition [1] was 47.5%.

`NC(=O)c1ccc(-c2ccc(Oc3cncc4sc(-c5nn[nH]n5)cc34)cc2)cc1` showed an IC50 [2] of 0.15 µM and an inhibition [1] of 89.9%.

`CCCS(=O)(=O)Nc1ccc(F)c(C(=O)c2c[nH]c3ncc(-c4ccc(Cl)cc4)cc23)c1F` [VEMURAFENIB] was tested, and the % control [3] was 69%, the % control [4] was 66% and the % control [5] was 91%. For the same compound, the % control [6] was 100%, the % control [7] was 49% and the Kd [8] was 5 µM. It also gave a % control [9] of 59% and a % control [10] of 71%.

`COc1cc(Nc2ncc3c(C)nc(-c4cccc(Oc5ccccc5)c4)n3n2)cc(OC)c1OC` showed an inhibition [11] of 2%, an inhibition [12] of 7% and an inhibition [13] of 32%. It also gave an inhibition [14] of 3%, an inhibition [15] of -1% and an inhibition [16] of 3%. It also gave an inhibition [17] of 4%, an inhibition [18] of 81% and an inhibition [19] of 29%.

Work on `COc1cc(Nc2ncc3c(C)nc(-c4cccc(C(F)(F)F)c4)n3n2)cc(OC)c1OC` yielded an inhibition [11] of 10%, an inhibition [12] of 8% and an inhibition [13] of 38%. The inhibition [14] was 55%, the inhibition [15] was 86% and the inhibition [16] was 5%. It also gave an inhibition [17] of 6%, an inhibition [18] of 9% and an inhibition [19] of 4%.

`COCCOc1cc2c(-n3nc(-c4ccccn4)nc3N)ncnc2cc1OC` showed an inhibition [20] of 78%.

In the case of `N#CCNC(=O)c1ccc(-c2ccnc(Nc3ccc(N4CCOCC4)cc3)n2)cc1` [MOMELOTINIB], the Kd [21] is reported as < 0.1 µM, the Kd [22] is reported as < 0.1 µM and the IC50 [23] is reported as 0.1 µM. The Kd [24] was < 0.1 µM.
